Patent publication US9408891B2, “Methods of using gelsolin to treat or prevent bacterial sepsis” (priority 2003, dated 2016)

Target: T1, PBP10 (PIP2-binding site of gelsolin) (Homo sapiens, UniProt P06396)
T1 construct: made in house; host or cells: solid phase peptide synthesis
Assay: Rhodamine-B fluorescence change of gelsolin peptide PBP10 after adding lipids
Conditions: 2 μM peptide, buffer A pH 7.0, 15 min
Experimental: Therefore, to determine changes of gelsolin OD at 280 nm, different amounts of LPS, LPA and PS were added to recombinant human gelsolin (rhGLS) solutions and OD emission spectra were recorded using spectrophotometer Genesys 6 (Thermo-Spectronic, USA).
Interaction of LPS and gelsolin was examined using rhodamine B- and pyrene-labeled SEQ ID No:1 (QRLFQVKGRR). The effect of LPS on gelsolin was determined in terms of the rhodamine-B fluorescent changes of PBP10 peptide in the presence of different lipids (FIG. 1C); and the fluorescence emission spectra of pyrene-labeled SEQ ID No:1 (2 μM) in the presence of LPS from Escherichia coli (1.2 μM), PIP2 (0.82 μM) and LPA (0.82 μM) (FIG. 1D) The results using the pyrene-derivatized gelsolin peptide confirmed the LPS induced clustering of the peptide with resulting excimer fluorescence of the pyrene group, which was evident as a large increase in fluorescence emission at 480 nm.
The tested gelsolin concentration was 50 nM; LTA ranged from 0-50 μM; Pyrene-F-actin was 0.3 μM. Recording changes in fluorescently-labeled (rhodamine B-labeled) gelsolin peptide PBP10 (10 μM), indicates a specific interaction between gelsolin and LTA.

In the case of lipopolysaccharide [LPS], the “fluorescence quenching / change of rhodamine-B peptide” value is reported as “induced identical concentration-dependent fluorescence quenching”.
